Reference: US20080095810A1, “Nanoparticles Of Chitosan And Polyethyleneglycol As A System For The Administration Of Biologically-Active Molecules” (Advanced In Vitro Cell Technologies, S.L., priority 2005, published 2008)

Experiments:
[1] = test system: streptozotocin diabetic male Wistar rats; test: blood sugar after intranasal administration of insulin formulations in diabetic rats; format: in vivo; details: 10 U/kg insulin intranasal, compared with acetate buffer or with chitosan-PEG nanoparticles
Description: To encapsulate insulin in the chitosan nanoparticles, 2.4 mg of insulin were previously dissolved in an NaOH solution to which 1.2 mL of TPP were later added. This mixture was later added to 3 mL of chitosan. After 5 min with magnetic stirring, the preparation was centrifuged at 10,000 g for 40 min. The supernatant was removed and the precipitate was dissolved in a buffer. For its part, the same process was carried out to prepare the chitosan-PEG nanoparticles, but adding 10 mg/mL of PEG 400 to 2 mg/mL of chitosan.
The rats were considered diabetic when the blood sugar concentration was greater than 400 mg/dl after three weeks of the treatment with streptozotocin.
Fasting rats were used to carry out this experiment. They were divided into different groups depending on the formulation which was to be administered to them. […]
To determine the blood glucose levels, blood samples were collected from the tail vein before the nasal administration and every quarter of an hour until 90 minutes were completed. […] The blood glucose level was immediately determined using a glucose analyzer (Prestige from Chronolyss). […]

[2] = test system: diabetic rats; test: glycemic response to an oral glucose administration after intranasal insulin formulations; format: in vivo; details: 10 U/kg insulin intranasal, compared with acetate buffer
Description: Diabetic rats which had fasted overnight were used to carry out this experiment. Each of the preparations described in Example 7 was nasally administered to them. After one hour, each group of rats received an oral glucose administration of 2 g per each kg of body mass. The blood sugar was measured in blood from samples collected from the tail vein before the glucose administration and after 10, 20, 30, 60, 90 and 120 minutes.

Q: With insulin as the substance, how does the “effect on blood sugar (in words)” value [1] read?
A: did not significantly change the previous result

Q: What about the “effect on glycemic response to oral glucose (in words)” value [2] of the same substance?
A: did not significantly change this result
